Measurements: US20130273557A1 (priority 2010, published 2013)
Entries after “also recorded” stand apart in the source; their conditions may differ.

Experiments:
[1] = molecular target: complex V (F1FO ATPase) (Rattus norvegicus, UniProt P19511+Q06647); details: concentration-dependent
Protocol: ATP hydrolysis was also measured using an NADH-ATP-synthase kit (Mitosciences, USA; catalog #MS541), according to the manufacturer's protocol with modifications. SMVs were added 20 min. prior to addition of the reagent mix. The rate of change in […] over time as NADH was oxidized was measured as a decrease in absorbance at 340 nm.

[2] = molecular target: ATP synthesis in liver mitochondria (Rattus norvegicus, UniProt P19511+Q06647)
Protocol: Synthesis of ATP in liver mitochondria was measured using an ATP determination kit (A-22066; Molecular Probes, Eugene, Oreg.), supplemented with 1 mM sodium succinate and 500 nM rotenone. Assays were performed in 96-well microplates (Becton Dickinson, Franklin Lakes, N.J.) in a final volume of […] consisting of 10 μL mitochondria (0.1 mg protein/ml final concentration), 10 μL of drug or control buffer and 90 μL ATP-determination reaction mixture. After a 5 min. recording of basal luciferase-generated luminescence, ADP (final concentration, 10 μM, 10 μL) was injected into each well. Luminescence was recorded every 6 sec for 15-20 min.

[3] = test system: C2C12 cells; format: cell-based, mouse; details: dexpramipexole 30 μM or PSI 30 nM, 18 hr, relative to control
Protocol: Data are presented as a percentage of the vehicle-treated control ±SEM (n=10 wells at each concentration). […] Experiments commenced 18 hr. after addition of drug. […] Data are presented as a percentage of the vehicle-treated control±SEM (n=14-17 wells for each group).
(§1) The C2C12 mouse myoblast cell line (ATCC, Manasses, Va.) was cultured in Dulbecco's Modified Eagle Medium (DMEM; Gibco®; Carlsbad, Calif.) supplemented with 10% fetal bovine serum (FBS), 2 mM GlutaMax® and penicillin/streptomycin. Cells were maintained in 10% CO2 humidified at 37° C.
(§2) Cellular viability was measured using CellTiter-Blue® (Promega Corp., Madison, Wis.) in black-walled optical imaging multiwell plates, and cellular ATP was measured using the CellTiter-Glo® (Promega Corp., Madison, Wis.) luminescence assay in opaque-walled multiwell plates according to the manufacturer's protocol.

[4] = test system: digitonin-treated cortical neurons; experiment: ATP production following ADP pulse in digitonin-treated cortical neurons; format: cell-based, rat; details: dexpramipexole 30 μM
[5] = test system: C2C12 myoblasts; experiment: OCR and ECAR in C2C12 myoblasts (Seahorse); format: cell-based, mouse
Protocol: as §1
(§3) OCR and ECAR were measured with a Seahorse® XF24 Flux Analyzer (Seahorse Bioscience, Billerica, Mass.). For PSI experiments on C2C12 cells, basal values were assessed in non-buffered DMEM Assay Medium without glucose, glutamine or pyruvate, and supplemented with 25 mM glucose, 6 mM Glutamax®, and 1 mM sodium pyruvate. […] Succinate and ADP stocks were diluted to 10× concentrations in pre-warmed XF MAS buffer, pH 7.2. Using a Plate Prep Station (Seahorse Bioscience, Billerica, Mass.), cells were washed with 1 mL buffer and were brought to 607 μL with buffer. […] Raw basal OCR and ECAR values were normalized as a percent of the mean control value for each individual experiment. Normalized data from experiments were expressed as mean±SEM.

[6] = molecular target: SMVs (F1FO ATP synthase) (Rattus norvegicus, UniProt P19511+Q06647); details: 20 μM unlabeled dexpramipexole; non-urea treated SMVs; preliminary experiment
[7] = test system: models of cell death and NDDs; details: compared with pramipexole; cited from earlier work
[8] = molecular target: human F1FO ATP synthase OSCP subunit (Homo sapiens, UniProt P48047); details: co-incubation in 'cold' dexpramipexole (100 μM)
[9] = test system: Ca^2+-induced ion conductance in mitochondria; details: 2 or 20 μM, in 100 μM Ca^2+
[10] = test system: SH-SY5Y neuroblastoma cells; details: 1-100 μM; 24 hr
Protocol: Undifferentiated SH-SY5Y human neuroblastoma cells (ATCC, Manasses, Va.) were maintained in humidified 5% CO2 in 1:1 Ham's F12 nutrient mixture with Glutamax® and Minimal Essential Medium with L-glutamine (MEM-Alpha), 10% FBS, and 1% penicillin/streptomycin (Gibco® Invitrogen Corp., Carlsbad, Calif.).
as §2

[11] = test system: digitonin-permeabilized cultured cortical neurons
Protocol: (§4) Primary rat cortical cultures were incubated with digitonin (10 μg/ml) and rotenone (100 nM) for 45 minutes in MAS1 buffer prior to measurement of oxygen consumption rate (OCR) by a Seahorse® flux analyzer. […] Data are shown as a percentage of the control group OCR±SEM.
Primary cultures of cortical neurons were prepared as described previously, plated at 8×10^5 cells/well for Seahorse XF24 experiments and grown in Neurobasal A supplemented with B27, 1 mM glutamine and penicillin/streptomycin for […] in vitro (DIV). On DIV 7, media without antibiotics was substituted. The cultures were used on DIV 9-10.
as §3

[12] = test system: citrate synthase; details: dexpramipexole 30 μM
Protocol: as §4

[13] = test system: cultured hippocampal neurons; details: 10 μM, 12 hr pre-treatment
Protocol: as §2, with “Cultured hippocampal neurons were prepared and plated on 96 well plates. […] Cellular” for “Cellular”

[14] = co-incubation of dexpramipexole 30 μM and PSI 30 nM
[15] = 30 μM applied 1 hr prior to recording

CCCN[C@@H]1CCc2nc(N)sc2C1 [dexpramipexole, (6R)-4,5,6,7-tetrahydro-N-6-propyl-2,6-benzothiazole-diamine]
ATP hydrolysis (change in NADH signal) [1]: significantly enhanced ATP hydrolysis | Hill slope of CRC [2]: < 1 | ATP levels [3]: neither ATP levels nor cell viability (FIG. 5b) were significantly affected | initial slope of ATP synthesis following an ADP pulse [4]: unchanged | maximal ATP levels [4]: unchanged | ECAR [5, 14]: no increase in ECAR | OCR [5, 14]: significant decrease in OCR | OCR ([5]; dexpramipexole 30 μM or PSI 30 nM alone, 18 hr): significant decrease in OCR; also recorded: significantly decreased | reduction in ^14C-dexpramipexole binding by competition [6]: 34% | protection [7]: equally protective | competition of ^14C-dexpramipexole binding to OSCP subunit [8]: significantly reduced binding | mitochondrial membrane currents [9]: effectively decreased | maximal group increases in ATP levels relative to control [10]: ~18% | OCR during succinate incubation [11, 15]: lower OCR | OCR following an ADP pulse [11, 15]: significantly lower OCR | increase in OCR produced by succinate and following the ADP pulse ([11]; acute application 30 μM): less than in control cells | basal respiration ([11]; acute application 30 μM, rotenone): did not affect | levels of citrate synthase [12]: unchanged | increase in ATP levels compared to vehicle-treated cultures [13]: 11%
